Each block holds one molecule with its values, some of them ahead of it.
Key:
Ovis aries [1] = test: Intravenous dose of compound that lowered systemic arterial pressure (SAP) in ovine pulmonary hypertension model; Range is 0.8-13 nM/kg min; format: functional, organism-based; conditions: Artery
Ovis aries [2] = test: Intravenous dose of compound that lowered pulmonary arterial pressure (PAP) in ovine pulmonary hypertension model; Range is 0.8-13 nM/kg min; format: functional, organism-based; conditions: Artery
[3] = Half life of compound for dissociation in DETA and NO; format: ADME
[4] = Half life of compound for dissociation in proline and NO; format: ADME
[5] = Rate constant of compound for dissociation in proline and NO; format: ADME
Ovis aries [6] = test: Pulmonary arterial pressure (PAP) in sheep on i.v. administration of 24 nM/ kg min; format: functional, Artery
Ovis aries [7] = test: Intravenous dose of compound that lowered systemic arterial pressure following in ovine pulmonary hypertension model; format: functional, Artery
Ovis aries [8] = test: Intravenous dose that lowered pulmonary arterial pressure withouteffect on systemic hemodynamics in sheep with drug-induced pulmonary hypertension; format: functional, Artery

Molecule: SODIUM NITROPRUSSIDE
- Dose (nM min-1 kg-1) (Ovis aries [1]): 13
- Dose (nM min-1 kg-1) (Ovis aries [2]): 13

- half-life [3]: 20 h
Molecule: NCCN(CCN)/[N+]([O-])=N/O

- T1/2 [4]: 1.8 s
- Rate constant [5]: 0.39 s⁻¹
Molecule: O=C([O-])[C@H]1CCCN1/[N+]([O-])=N/[O-].[Na+].[Na+]
- PAP (Ovis aries [6]): 9 mmHg
- Dose (Ovis aries [7]): 48 nM/min/kg
- Dose (Ovis aries [8]): 24 nM/min/kg

— ChEMBL document CHEMBL1129376, “Localizing antithrombotic and vasodilatory activity with a novel, ultrafast nitric oxide donor” (J Med Chem, 1996)
